The source of these data is the METLIN SMRT retention time set (Domingo-Almenara et al. 2019).

Molecules are shown by their SMILES.

This data set in a line: gradient 5% acetonitrile 3 min, to 50% in 2 min, to 85% in 15 min, held 3 min, 100 µL/min. The conditions noted are these: column: Zorbax Extend-C18 2.1 x 50 mm; eluents: water / acetonitrile, 0.1% formic acid. The procedure, abridged:
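The system's dead and dwell volumes were 40 μL and 900 μL, with a Zorbax Extend-C18 column (2.1 × 50 mm, 1.8 μm) run at 100 μL/min in water and acetonitrile containing 0.1% formic acid each. Pure standards were analyzed in mixtures of ~100 molecules by HPLC–quadrupole time-of-flight mass spectrometry in positive and negative ionization mode. Retention time was assigned from computationally picked, manually inspected adduct peaks.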
Regarding `CCN1C(=O)c2cccnc2Sc2cc(CNC(=O)c3cnccn3)ccc21`, the RP-LC retention time was 683 s. The figure for `CCC(C)NC(=O)CSc1ccc(-n2nccc2-c2ccc(OC)cc2)nn1` (centres undefined) is 989 s; for `O=C(NCCn1nnc2cc(C(=O)N3CCCC3)ccc21)Nc1ccc(F)cc1` it is 662 s; for `Nc1cc(C2CCN(C(=O)c3cccnc3)CC2)no1` it is 554 s. Turning to `CC(C)CCNC(=O)c1csc(-c2ccc(N3CCCC3)nc2)n1`, the RP-LC retention time came out at 714 s. With `O=c1c2cc(-c3ccc(F)cc3)nn2cnn1Cc1nc(-c2ccc(F)cc2)no1` the figure was 1100 s.

As to `CCC(C)N(C)C(=O)c1cc2ccccc2c(-c2ccccc2Cl)n1` (centres undefined), the RP-LC retention time was 1110 s. `CCC(C(=O)NC1CC1)n1nc(C)c2c(C)n(-c3ccccc3)nc2c1=O` (centres undefined) yielded an RP-LC retention time of 735 s. Molecule `CCOc1ccc(-n2nc(CO)c(C(=O)NC)n2)cc1` had an RP-LC retention time of 763 s. With `O=C(Cc1csc2nc(-c3ccccc3)cn12)Nc1ccc(C(F)(F)F)cc1`, the RP-LC retention time was determined as 922 s.

Consider `Cc1ccc2c(CN3CCN(c4ccccn4)CC3)cc(=O)oc2c1`, for which the RP-LC retention time was 634 s. The figure for `CCNC(=O)C1CCCN(c2nc3ncn(CC(=O)Nc4cccc(Cl)c4)c(=O)c3s2)C1` (centres undefined) is 701 s. The figure for `CCOC1CCN(C(=O)NC2CCCC2)CC1` is 698 s; for `CCNC(=O)C1Cn2cccc2C(=O)N1C` (centres undefined) it is 569 s. With `CN(C)c1ccc(Nc2nc(-c3ccccc3)cs2)cc1` the figure was 705 s; with `O=C(c1ccsc1)N1CCC2(CC1)CC(N1CCOCC1)CCO2` (centres undefined), 557 s. Regarding `COc1ccc(C)cc1NC(=O)NC1CCN(c2ccc(F)c(C)c2)C1=O` (centres undefined), the RP-LC retention time came to 914 s.

Molecule `Cc1cccc(NC(=O)Nc2cnn(-c3ncncc3N3CCOCC3)c2)c1C` showed an RP-LC retention time of 612 s. The figure for `O=c1cc(Cn2nc3c(-c4nc(-c5ccccc5)no4)cccn3c2=O)nc2ccccn12` is 740 s; for `COc1ccc(N2CCN(C(=O)C3CCN(S(=O)(=O)c4cn(C)cn4)CC3)CC2)cc1` it is 628 s.

For `Cc1cc2nc(C(F)(F)F)c(=O)n(C(C)C(=O)NCc3ccco3)c2cc1C` (centres undefined), the RP-LC retention time was determined as 756 s. The figure for `CCCNC(=O)Cn1c(CC)nc2ccccc21` is 578 s. With `CCOC(=O)c1[nH]c(C)c(C(=O)N2CCC(CC(=O)NC(C)C)CC2)c1C` the figure was 643 s; with `O=C(NC1CCN(c2cc(-c3ccc(Cl)cc3)[nH]n2)CC1)c1ccc2nc[nH]c2c1`, 634 s.

For the molecule `O=C(NCCc1ccc(N2CCCC2)cc1)C(=O)Nc1ccc2c(c1)OCCO2`, the RP-LC retention time amounted to 844 s. In turn, `O=C(Nc1cnn(-c2ncc(N3CCCCC3)cn2)c1)Nc1ccccc1C(F)(F)F` came in with an RP-LC retention time of 891 s.

On to `Cc1cc2c(cc1S(=O)(=O)N1CCCC1C(=O)N1CCc3ccccc31)OCC(=O)N2` (centres undefined), for which the RP-LC retention time was 788 s. With `CC1CCc2cc(F)cc3c(=O)c(C(=O)O)cn1c23` (centres undefined) the figure was 806 s; with `COc1cccc(CNC(=O)C2CCN(c3nnc4cccc(C)n34)CC2)c1`, 642 s; with `CN(C)CCn1cc(C(=O)NCc2ccco2)ccc1=O`, 590 s. In turn, `COc1ccc(-c2noc(-c3nc(-c4cccnc4)no3)n2)cc1OC` yielded an RP-LC retention time of 893 s. As to `COc1ccc(Nc2cc(Cl)ccc2C(=O)O)cn1`, the RP-LC retention time was 978 s. The figure for `CCOC(=O)C1CCN(C(=O)c2cc3sc(C)cc3n2C)CC1` is 951 s; for `CC1(C)CS(=O)(=O)N(c2ccc(C(=O)N3CCN(c4ccccn4)CC3)cc2)C1=O` it is 608 s. Molecule `Cc1noc([C@@H]2CN(C(=O)c3cc(C)oc3C)C[C@H]2CO)n1` gave an RP-LC retention time of 640 s. The figure for `Cc1ccc(NC(=O)CN2CCc3[nH]c4c(C)cc(F)cc4c(=O)c3C2)c(Cl)c1` is 665 s; for `CCCn1c(-c2cccc(C(=O)NC(CC)c3cccs3)c2)nc2cccnc21` (centres undefined) it is 886 s; for `Cc1ccc(CNC(=O)Cn2c(C)cc(-c3nnc(C4CCC4)o3)c2C)cc1` it is 903 s. `COC(=O)c1ccc(NC(=O)Cn2cccc(-c3nc(-c4ccccc4)no3)c2=O)cc1` registered an RP-LC retention time of 829 s. Consider `Cc1ccc(C2=NC3(CCN(C(=O)COc4ccc(Cl)cc4)CC3)ON2)cc1`, for which the RP-LC retention time was found to be 935 s.

The molecule `CCc1sc(NC(=O)CCS(=O)(=O)Cc2ccccc2)nc1-c1ccccc1` yielded an RP-LC retention time of 948 s. For `CCCNC(=O)C1CCCN(c2ccc(SCC(=O)Nc3cc(F)ccc3Cl)nn2)C1` (centres undefined), the RP-LC retention time worked out at 748 s. With `CSc1ccc(-c2nc3cnccn3c2Nc2ccc(C)cc2)cc1` the figure was 1000 s. The molecule `O=C(Cn1ccc2sccc2c1=O)Nc1cccc(Br)c1` came in with an RP-LC retention time of 793 s.

Regarding `O=C(CCn1c(N2CCCC2)nc2ccsc2c1=O)NCc1ccc(F)cc1`, the RP-LC retention time stood at 755 s. As for `O=C1CC(c2noc(-c3ccc(F)cc3)n2)CN1c1ccc(F)c(Cl)c1` (centres undefined), the RP-LC retention time was determined as 1100 s.

Turning to `CC(C)n1nccc1-c1nnc(NC(=O)C2CC(=O)N(c3ccc(F)cc3)C2)o1` (centres undefined), the RP-LC retention time was 685 s. The figure for `O=C(Nc1ccc(F)cc1F)c1c(O)c2cccnc2n(-c2ccc(F)cc2)c1=O` is 957 s; for `CC(C)n1c(N2CCN(C(=O)Cc3cccs3)CC2)cc(=O)n(C(C)C)c1=O` it is 829 s; for `COc1cccc2cc(-c3nnc(NC(=O)NC4CCCC4)o3)oc12` it is 830 s. With `O=C(NC1CCc2ccccc21)C1CCN(C(=O)c2ncn3c2COC(c2ccc(F)cc2)C3)CC1` (centres undefined) the figure was 792 s; with `Cc1ccc2oc(CN3CCN(C(=O)Nc4ccccc4)CC3)nc2c1`, 678 s; with `Cc1nn(C(C)C(=O)N2CCCCCC2)c(=O)c2c(-n3cccc3)n(-c3ccccc3)nc12` (centres undefined), 1040 s. The figure for `Cn1cc(-c2cc3n(n2)CCC(=O)N3CCCC(=O)N2CCOCC2)c2ccccc21` is 692 s; for `CC1CCCCN1CCNC(=O)Cn1c2ccccc2c2cnn(C)c(=O)c21` (centres undefined) it is 620 s; for `Cc1nc2cccnc2n1C1CCN(C(=O)Nc2ccc3c(c2)OCO3)CC1` it is 613 s.

In turn, `Cc1cc2n(n1)CCCN2C(=O)CCC(=O)N1CCN(c2cccc(Cl)c2)CC1` came in with an RP-LC retention time of 778 s.

In turn, `CCCN1CCN(c2cc(C(=O)O)c3cc(NS(=O)(=O)c4ccc(F)c(F)c4)ccc3n2)CC1` came in with an RP-LC retention time of 651 s. With `CCN(CC)c1ccc(NC(=O)C2CCCN(S(=O)(=O)c3cn(CC)cn3)C2)c(C)c1` (centres undefined) the figure was 578 s. As for `Cc1c(Cl)cccc1NC(=O)Cn1cnc2c(sc3nc(-c4ccccc4)ccc32)c1=O`, the RP-LC retention time was found to be 1070 s. With `COc1cc(NC(=O)Cn2nc3c4cc(F)ccc4ncn3c2=O)cc(OC)c1` the figure was 697 s; with `CN1CCC(N2CCN(S(=O)(=O)c3ccccc3F)CC2)C1=O` (centres undefined), 545 s. With `CCCCN(C)C(=O)CCC(=O)Nc1ccc2nc(N3CCN(C)CC3)cc(C)c2c1` the figure was 546 s; with `COc1ccc(C2C(C(=O)Nc3ccc4c(c3)OCO4)c3ccccc3C(=O)N2C)cc1` (centres undefined), 835 s; with `COC(=O)c1cc(OCC(=O)Nc2ccccc2F)c2cc(OC)c(OC)cc2n1`, 756 s.

Turning to `CCN1C(=O)c2c(C(=O)NCc3ccc(Cl)cc3)ncn2CC1(C)C(=O)NC1CCCC1` (centres undefined), the RP-LC retention time is 798 s.

The molecule `Cc1ccc(S(=O)(=O)N2CCCN(C)c3ccccc32)cc1C` had an RP-LC retention time of 603 s. Regarding `Cc1cc(OCC(=O)Nc2ccnn2Cc2cccs2)ccc1Cl`, the RP-LC retention time worked out at 913 s. With `O=C(c1cccc(Cl)c1)N1CCN(c2cc(-c3cccs3)[nH]n2)CC1` the figure was 816 s; with `O=C(NCc1cc(F)cc(F)c1)C1CCN(c2ccc(SCc3ccccc3)nn2)CC1`, 791 s. In turn, `COCCCNC(=O)C1(C)Cn2nc(-c3ccccc3)cc2C(=O)N1Cc1ccc(OC)cc1` (centres undefined) had an RP-LC retention time of 865 s. With `COCC1CN(Cc2cc3ccc(C)cc3[nH]c2=O)CCC1(F)F` (centres undefined) the figure was 629 s. The figure for `c1coc(CN2CC(Oc3ccc(-c4noc(-c5ccncc5)n4)cc3)C2)c1` is 665 s; for `Cc1nnc2cc(N3CCN(C(=O)Nc4ccc(F)cc4F)CC3)cnn12` it is 597 s.

`CCCCCn1c(=O)c2ccccc2n(Cc2nc(-c3ccc(C)cc3)no2)c1=O`: the RP-LC retention time came out at 1350 s. With `COc1ccc(CC(=O)N2C[C@@H]3C[C@H](NS(C)(=O)=O)[C@H]2C3)cc1Cl` the figure was 651 s; with `O=C(Cn1cccc1-c1nc(-c2ccc3c(c2)OCO3)no1)Nc1ccc(Cl)cc1F`, 738 s; with `CC(C)Cn1cc(CCNC(=O)Nc2ccc(F)c(Cl)c2)c2cccnc21`, 912 s.

Take `O=C(NC1CC1)c1cn(CCC2CCCCN2C(=O)C2CC2)nn1` (centres undefined): the RP-LC retention time was 636 s.
